The assay deals with bed bugs. The assay can be described thus: Petri dish choice test, treated vs. untreated paper discs: repellency (avoidance) of bed bugs. Particulars: 1 ml acetone solution on paper disc, distribution at 2 hours post-treatment, 5 replicates of 10 bed bugs. Format: in vivo, Cimex species. Here is the method:
Two semicircle discs of paper, one treated (1 ml of acetone solution of each compound was applied to each disc) and one untreated (1 ml of acetone only), were placed in the lid of a Petri dish. […] Five replicates of 10 bed bugs were released into the centers of the lids and were thus presented with a choice of treated vs. untreated substrate (or untreated vs. untreated in the control arenas). The distribution of the bed bugs was recorded at 2 hours post-treatment. Paired t-tests were conducted for each treatment to ascertain whether or not there was a statistically significant difference in the numbers of bed bugs on the treated vs. untreated discs.

Consider `CCN(CC)C(=O)c1cccc(C)c1` [DEET, N,N-Diethyl-m-toluamide, reference compound], for which the Repellency/Avoidance is listed as 66% (0.09% compound) and 74% (0.2% compound).

Consider `CCCCCC1C(=O)CCC1CC(=O)O` (stereo not shown) [Dihydrojasmonic Acid], for which, under “0.2% compound”, the Repellency/Avoidance is given as 78%.

`CCCCCC1C(O)CCC1CC(=O)OC` (stereo not shown) [Methyl dihydrojasmolate]: the Repellency/Avoidance was 58% (0.15% compound) and 82% (0.2% compound).

In turn, `CCCCCC1C(CC(=O)OC)CCC1(OC)OC` (stereo not shown) [Methyl dihydrojasmonate dimethyl acetal] had a Repellency/Avoidance (0.2% compound) of 90%.

Consider `CC1CCC(C(C)(C)O)C(O)C1` (stereo not shown) [Para Menthane-3,8-diol (PMD), Para Menthane-3,8-diol, reference compound], for which the Repellency/Avoidance is, setting by setting: (0.15% compound) 42%; (0.2% compound) 70%.

Molecule `CCCCCC1C(O)CCC1CC(=O)OCC=C(C)C` (stereo not shown) [Prenyl dihydrojasmolate] yielded a Repellency/Avoidance (0.2% compound) of 48%.

With `CCCCCCCCCC1(C)CCC(=O)O1` (stereo not shown) [gamma Methyl tridecalactone], the Repellency/Avoidance (0.2% compound) was determined as 72%.

Consider `CCCCCCCCC1CCC(=O)O1` (stereo not shown) [gamma-Dodecalactone], for which the Repellency/Avoidance (0.2% compound) is reported as 82%.

In the case of `CCCCCCCCCCCCCC1CCC(=O)O1` (stereo not shown) [gamma-Heptadecalactone], under “2% compound”, the Repellency/Avoidance is on record as 68%.

The molecule `CCCCCCCCCCCC1CCC(=O)O1` (stereo not shown) [gamma-Pentadecalactone] gave a Repellency/Avoidance (1% compound) of 92%.

Consider `CCCCCCCCCC1CCC(=O)O1` (stereo not shown) [gamma-Tridecalactone], for which the Repellency/Avoidance by setting is: (0.5% compound) 86%; (1% compound) 96%.

Dihydrojasmolactone showed a Repellency/Avoidance (0.2% compound) of 84%.

Regarding Methyl apritol, the Repellency/Avoidance is 74% (0.15% compound) and 88% (0.2% compound).

Molecule Methyl dihydrojasmonate amide yielded a Repellency/Avoidance (concentration not given) of 28%.

Values taken from patent US11098003B2, “Control and repellency of bed bugs” (BEDOUKIAN RESEARCH, INC., priority 2012, dated 2021).
